Reference: ChEMBL document CHEMBL1201862, “PubChem BioAssay data set” (2004)
“And” between values parts separate entries of the source, which are not always exact repeats. Equal values may be shown once.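 Cultured in 96-well plates, cells were exposed to test compound for 48 hours across five concentrations. GI50 = concentration required for 50% inhibition of growth.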 The source made the active and inactive calls. Cut-off read from the data, not from the text of the source: active = GI50 up to about 1.1 µM and inactive = higher.

Assays:
Assay in all cases: growth of human tumour cells (NCI), 48 h
[1] = tested on: SF-295
[2] = tested on: LXFL 529
[3] = tested on: HOP-18
[4] = tested on: OVCAR-3
[5] = tested on: M19-MEL
[6] = tested on: HCT-15
[7] = tested on: HCT-116
[8] = tested on: SF-268
[9] = tested on: 786-0
[10] = tested on: KM-20L2
[11] = tested on: UACC-257
[12] = tested on: TK-10
[13] = tested on: A549
[14] = tested on: NCI-H460
[15] = tested on: MOLT-4
[16] = tested on: LOX IMVI
[17] = tested on: SW-620
[18] = tested on: EKVX
[19] = tested on: SK-MEL-2
[20] = tested on: CCRF-CEM
[21] = tested on: OVCAR-4
[22] = tested on: M14
[23] = tested on: SF-539
[24] = tested on: OVCAR-5
[25] = tested on: DMS-114
[26] = tested on: HL-60
[27] = tested on: DMS-273
[28] = tested on: NCI-H23
[29] = tested on: KM12
[30] = tested on: UO-31
[31] = tested on: UACC-62
[32] = tested on: RXF 393
[33] = tested on: NCI-H522
[34] = tested on: ACHN
[35] = tested on: NCI-H226
[36] = tested on: SK-OV-3
[37] = tested on: SNB-75
[38] = tested on: SNB-19
[39] = tested on: HOP-92
[40] = tested on: IGROV-1
[41] = tested on: SK-MEL-5
[42] = tested on: Malme-3M
[43] = tested on: RXF 631
[44] = tested on: HT-29
[45] = tested on: K562
[46] = tested on: COLO 205
[47] = tested on: HCC 2998
[48] = tested on: A498
[49] = tested on: DLD-1
[50] = tested on: CAKI-1
[51] = tested on: SK-MEL-28
[52] = tested on: XF498
[53] = tested on: NCI/ADR-RES
[54] = tested on: MDA-MB-435
[55] = tested on: MDA-N
[56] = tested on: HOP-62
[57] = tested on: BT-549
[58] = tested on: DU-145
[59] = tested on: T47D

## NC(=O)N/N=C(\CC1OC(=O)c2ccccc21)c1ccco1 (configuration not stated)
[1]
  GI50: > 100 µM (inactive)
[2]
  GI50: > 100 µM (inactive)
[3]
  GI50: > 100 µM (inactive)
[4]
  GI50: > 100 µM (inactive)
[5]
  GI50: > 100 µM (inactive)
[6]
  GI50: > 100 µM
[7]
  GI50: > 100 µM (inactive)
[8]
  GI50: > 100 µM (inactive)
[9]
  GI50: 92.9 µM (inactive)
[10]
  GI50: > 100 µM (inactive)
[11]
  GI50: > 100 µM (inactive)
[12]
  GI50: > 100 µM (inactive)
[13]
  GI50: > 100 µM (inactive)
[14]
  GI50: > 100 µM (inactive)
[15]
  GI50: > 100 µM (inactive)
[16]
  GI50: > 100 µM (inactive)
[17]
  GI50: > 100 µM (inactive)
[18]
  GI50: > 100 µM (inactive)
[19]
  GI50: > 100 µM (inactive)
[20]
  GI50: > 100 µM (inactive)
[21]
  GI50: > 100 µM (inactive)
[22]
  GI50: > 100 µM (inactive)
[23]
  GI50: > 100 µM (inactive)
[24]
  GI50: > 100 µM (inactive)
[25]
  GI50: > 100 µM (inactive)
[26]
  GI50: > 100 µM (inactive)
[27]
  GI50: > 100 µM (inactive)
[28]
  GI50: > 100 µM (inactive)
[29]
  GI50: > 100 µM (inactive)
[30]
  GI50: > 100 µM (inactive)
[31]
  GI50: > 100 µM (inactive)
[32]
  GI50: > 100 µM (inactive)
[33]
  GI50: > 100 µM (inactive)
[34]
  GI50: > 100 µM (inactive)
[35]
  GI50: > 100 µM (inactive)
[36]
  GI50: > 100 µM (inactive)
[37]
  GI50: > 100 µM (inactive)
[38]
  GI50: > 100 µM (inactive)
[39]
  GI50: > 100 µM (inactive)
[40]
  GI50: > 100 µM (inactive)
[41]
  GI50: > 100 µM (inactive)
[42]
  GI50: > 100 µM (inactive)
[43]
  GI50: > 100 µM (inactive)
[44]
  GI50: > 100 µM (inactive)
[45]
  GI50: > 100 µM (inactive)
[46]
  GI50: > 100 µM (inactive)
[47]
  GI50: > 100 µM (inactive)
[48]
  GI50: > 100 µM (inactive)
[49]
  GI50: > 100 µM (inactive)
[50]
  GI50: > 100 µM (inactive)
[51]
  GI50: > 100 µM (inactive)

## O=C1C(CN(Cc2ccccc2)Cc2ccccc2)CCCC1CN(Cc1ccccc1)Cc1ccccc1 (configuration not stated)
[1]
  GI50: 44.9 µM (inactive) and 35.9 µM (inactive)
[52]
  GI50: 15.1 µM (inactive)
[53]
  GI50: > 100 µM (inactive) and > 89.1 µM (inactive)
[13]
  GI50: > 54.5 µM (inactive)
[54]
  GI50: > 100 µM (inactive) and > 92.3 µM (inactive)
[55]
  GI50: > 76 µM (inactive)
[14]
  GI50: > 87.3 µM (inactive) and 43.9 µM (inactive)
[24]
  GI50: 34.8 µM (inactive) and > 65.3 µM (inactive)
[56]
  GI50: > 62.1 µM (inactive)
[57]
  GI50: > 100 µM (inactive) and > 79.8 µM (inactive)
[35]
  GI50: > 68.7 µM (inactive) and 52.1 µM (inactive)
[36]
  GI50: > 61.1 µM (inactive) and 44.5 µM (inactive)
[38]
  GI50: > 57 µM (inactive)
[39]
  GI50: 16.7 µM (inactive) and 27.3 µM (inactive)
[40]
  GI50: 69.5 µM (inactive) and > 45.7 µM (inactive)
[41]
  GI50: > 42.5 µM (inactive) and 66.8 µM (inactive)
[43]
  GI50: > 100 µM (inactive)
[58]
  GI50: > 100 µM (inactive)
[47]
  GI50: > 53.2 µM (inactive) and > 69.7 µM (inactive)
[59]
  GI50: > 100 µM (inactive)
[48]
  GI50: > 78.9 µM (inactive) and 41.5 µM (inactive)
